Data on 41 compounds can be found in patent EP4104902B1, “COMPOUNDS AND M[…] SAME” (priority 2020, dated 2021).

Structures are written as SMILES. A value given as a limit tells only on which side of the number the result lay.

The first assay relates to recombinant rabies virus 1088 strain expressing Gaussia Luciferase (GLuc) (1088/GLuc). Format: cell-based. Conditions: read-out: Anti-rabies activity.
Consider `N=C(N)NCCCN1C[C@@H]2C[C@H]3CN[C@]2(C(=O)NCc2ccccc2)[C@@H]1[C@@H]3Cc1cccc2ccccc12` (relative stereo) [IB-300], for which the IC50 lay in the range of 10 to 30 µM. On the same count and under the same terms, as for `CC(C)CCN1C[C@@H]2C[C@H]3CN[C@]2(C(=O)NCc2ccc(O)cc2)[C@@H]1[C@@H]3CCc1ccccc1` (relative stereo) [IB-576], the figure is 10 to 30 µM.

With `O=C(NCc1ccccc1)[C@@]12C[C@@H]3CN(Cc4ccc(F)cc4)[C@@H]([C@@H]3CN1)[C@H]2Cc1ccccc1` (relative stereo) [IF-649], the IC50 is less than 5 µM. On the same count and under the same terms, with `NC(=O)CN1C[C@@H]2C[C@H]3CN[C@]2(C(=O)NCCc2ccccc2)[C@@H]1[C@@H]3Cc1cccc2ccccc12` (relative stereo) [IB-97] the figure was less than 5 µM; with `NC(=O)CCNC(=O)C12NCC3CC1CN(Cc1ccccc1)C2C3Cc1ccccc1` (stereo not drawn) [IB-734], 10 to 30 µM; with `O=C(NCCO)[C@@]12C[C@@H]3CN(Cc4cccc5ccccc45)[C@@H]([C@@H]3CN1)[C@H]2Cc1ccccc1` (relative stereo) [IF-603], 10 to 30 µM. Same read-out and setting: as for `CC(C)CNC(=O)[C@@]12C[C@@H]3CN(CC4CCCCC4)[C@@H]([C@@H]3CN1)[C@H]2Cc1cccc2ccccc12` (relative stereo) [IF-646], the figure is less than 5 µM. Same read-out and setting: with `CC(C)CC[C@@H]1[C@@H]2CN[C@@]3(C(=O)NCC(C)C)[C@@H](C2)CN(CCO)[C@@H]13` (relative stereo) [IB-372] the figure was 10 to 30 µM.

With `NC(=O)CCNC(=O)C12NCC3CC1CN(Cc1ccc(O)cc1)C2C3Cc1cccc2ccccc12` (stereo not drawn) [IB-743], the IC50 is less than 5 µM. On the same count and under the same terms, with `NC(=O)CN1C[C@@H]2C[C@H]3CN[C@]2(C(=O)NCc2ccc(F)cc2)[C@@H]1[C@@H]3Cc1cccc2ccccc12` (relative stereo) [IB-96] the figure was 10 to 30 µM; with `CC(C)NC(=O)[C@@]12C[C@@H]3CN(Cc4ccc(O)cc4)[C@@H]([C@@H]3CN1)[C@H]2Cc1cccc2ccccc12` (relative stereo) [IF-504], 10 to 30 µM; with `CC(C)C[C@@H]1[C@@H]2CN[C@@]3(C(=O)NCc4ccc(O)cc4)[C@@H](C2)CN(CC2CCCCC2)[C@@H]13` (relative stereo) [IB-581], 10 to 30 µM. The same measure, in the same setting: with `COc1ccc(CN2CC3CC4(C(=O)NCc5ccccc5)N=CC3C2C4CC(C)C)cc1` (stereo not drawn) [IIF-85] the figure was 5 to 10 µM. The same measure, in the same setting: as for `CCCCCCNC(=O)[C@@]12C[C@@H]3CN(CC4CCCCC4)[C@@H]([C@@H]3CN1)[C@H]2Cc1ccc(O)cc1` (relative stereo) [IF-514], the figure is less than 5 µM; as for `CCCCCCNC(=O)C12NCC3CC1CN(CCO)C2C3Cc1ccccc1` (stereo not drawn) [IB-476], less than 5 µM. For `NC(=O)CCNC(=O)C12NCC3CC1CN(CCc1ccccc1)C2C3Cc1ccccc1` (stereo not drawn) [IB-707], the IC50 is less than 5 µM.

Take `O=C(NCCO)[C@]12NC[C@@H]3C[C@H]1CN(Cc1ccc(F)cc1)[C@H]2[C@@H]3Cc1ccccc1` (relative stereo) [IB-649]: the IC50 was in the range of 10 to 30 µM.

On to `O=C(NCc1ccc(O)cc1)[C@@]12C[C@@H]3CN(CCc4ccccc4)[C@@H]([C@@H]3CN1)[C@H]2Cc1ccccc1` (relative stereo) [IF-469], for which the IC50 is 10 to 30 µM.

As to `O=C(NCc1ccc(O)cc1)[C@]12NC[C@@H]3C[C@H]1CN(CCO)[C@H]2[C@@H]3Cc1cccc2ccccc12` (relative stereo) [IB-470], the IC50 lay within 10 to 30 µM. The same measure, in the same setting: as for `O=C(NCCO)[C@]12NC[C@@H]3C[C@H]1CN(CCc1ccccc1)[C@H]2[C@@H]3Cc1cccc2ccccc12` (relative stereo) [IB-593], the figure is 10 to 30 µM; as for `CC(C)CCC1C2CNC3(C(=O)NCc4ccc(F)cc4)C(C2)CN(CCC(=O)O)C13` (stereo not drawn) [IB-399], 10 to 30 µM; as for `CC(C)C[C@@H]1[C@@H]2[C@@H]3CN[C@@]1(C(=O)NCCc1ccccc1)C[C@@H]3CN2CC(C)C` (relative stereo) [IF-725], 10 to 30 µM.

In the case of `CC(C)C[C@@H]1[C@@H]2CN[C@@]3(C(=O)NCc4ccc(O)cc4)[C@@H](C2)CN(Cc2ccc(F)cc2)[C@@H]13` (relative stereo) [IB-458], the IC50 is 10 to 30 µM. Same read-out and setting: as for `CC(C)CNC(=O)[C@]12NC[C@@H]3C[C@H]1CN(CCC(=O)O)[C@H]2[C@@H]3Cc1cccc2ccccc12` (relative stereo) [IB-575], the figure is 10 to 30 µM; as for `CC(C)CCN1C[C@H]2C[C@]3(C(=O)NCCO)NC[C@H]2[C@H]1[C@H]3Cc1cccc2ccccc12` (relative stereo) [IF-611], 10 to 30 µM; as for `NC(=O)CCNC(=O)[C@]12NC[C@@H]3C[C@H]1CN(CC1CCCCC1)[C@H]2[C@@H]3Cc1ccccc1` (relative stereo) [IB-637], less than 5 µM. The same measure, in the same setting: with `O=C(O)CCC1C2CNC3(C(=O)NCc4cccc5ccccc45)C(C2)CN(Cc2ccc(F)cc2)C13` (stereo not drawn) [IB-390] the figure was 10 to 30 µM; with `NC(=O)C[C@@H]1[C@@H]2[C@@H]3CN[C@@]1(C(=O)NCc1ccc(O)cc1)C[C@@H]3CN2CC1CCCCC1` (relative stereo) [IF-247], 10 to 30 µM; with `CC(C)CCNC(=O)C12NCC3CC1CN(CC(C)C)C2C3Cc1ccccc1` (stereo not drawn) [IB-870], 10 to 30 µM. The same measure, in the same setting: as for `CC(C)C[C@@H]1[C@@H]2[C@@H]3CN[C@@]1(C(=O)NCc1ccc(O)cc1)C[C@@H]3CN2Cc1ccc(F)cc1` (relative stereo) [IF-482], the figure is 10 to 30 µM; as for `NC(=O)CCNC(=O)C12CC3CN(CCc4ccccc4)C(C3CN1)C2CC(N)=O` (stereo not drawn) [IF-219], 10 to 30 µM. In the case of `CC(C)NC(=O)C12NCC3CC1CN(Cc1ccc(O)cc1)C2C3Cc1cccc2ccccc12` (stereo not drawn) [IB-502], the IC50 was less than 5 µM. Same read-out and setting: as for `O=C(O)CCC1C2C3CNC1(C(=O)NCc1ccc(O)cc1)CC3CN2CC1CCCCC1` (stereo not drawn) [IF-447], the figure is 10 to 30 µM; as for `O=C(NCCO)[C@@]12C[C@@H]3CN(Cc4cccc5ccccc45)[C@@H]([C@@H]3CN1)[C@H]2Cc1cccc2ccccc12` (relative stereo) [IF-614], 10 to 30 µM. With `CC(C)C[C@@H]1[C@@H]2CN[C@@]3(C(=O)NCc4ccccc4)[C@@H](C2)CN(CC(C)C)[C@@H]13` (relative stereo) [IB-5], the IC50 is 10 to 30 µM. On the same count and under the same terms, as for `CCCCCCNC(=O)[C@@]12C[C@@H]3CN(CC4CCCCC4)[C@@H]([C@@H]3CN1)[C@H]2CCCNC(=N)N` (relative stereo) [IF-260], the figure is 10 to 30 µM.

For `CC(C)CC1C2C3C=NC1(C(=O)NCc1ccccc1)CC3CN2Cc1cccc(Cl)c1` (stereo not drawn) [IIF-84], the IC50 lay within 5 to 10 µM. For the compound `O=C(NCc1ccccc1)[C@]12NC[C@H]3C[C@H]1CN(Cc1cccc4ccccc14)[C@H]2[C@@H]3Cc1ccccc1` (relative stereo) [IB-42, (3S*,3aS*,6S*,7R*,7aS*)-N,7-dibenzyl-1-(naphthalen-1-ylmethyl)octahydro-3aH-3,6-methanopyrrolo[3,2-b]pyridine-3a-carboxamide], the IC50 was in the range of 10 to 30 µM.

Regarding `CC(C)CN1C[C@H]2C[C@]3(C(=O)NCc4ccc(F)cc4)NC[C@H]2[C@H]1[C@H]3CCc1ccccc1` (relative stereo) [IF-525], the IC50 was in the range of 10 to 30 µM. The same measure, in the same setting: with `CC(C)CCN1CC2CC3CNC2(C(=O)NCc2ccc(F)cc2)C1C3Cc1ccc(O)cc1` (stereo not drawn) [IB-481] the figure was less than 5 µM.

On to `CC(C)CCN1C[C@H]2C[C@]3(C(=O)NCC(C)C)NC[C@H]2[C@H]1[C@H]3Cc1ccccc1` (relative stereo) [IF-735], for which the IC50 lay in the range of 10 to 30 µM.

The assay is the same for the next values; noted with them: read-out: IC50.
`CC(C)C[C@@H]1[C@@H]2CN[C@@]3(C(=O)NCc4ccccc4)[C@@H](C2)CN(CC(C)C)[C@@H]13` (relative stereo) [IB-5]: the IC50 is 18.2 µM.
